According to ChEMBL document CHEMBL5104167, “Development and profiling of mGlu7 NAMs with a range of saturable inhibition of agonist responses in vitro” (Bioorg Med Chem Lett, 2022):

What was measured:
[1] = Ratio of drug level in brain to plasma in rat; assay type: ADME, cell-free
[2] = biological target: Metabotropic glutamate receptor 7 (Rattus norvegicus, UniProt P35400); test: Negative allosteric modulation of rat mGlu7 in HEK cells expressing Galpha15 assessed as inhibition of L-AP4-induced response measured by calcium mobilization assay; assay type: functional, cell-based
[3] = biological target: T1, Metabotropic glutamate receptor 7 (Homo sapiens, UniProt Q14831)
[4] = biological target: T1, Metabotropic glutamate receptor 7; remark: listed apart in the source
[5] = Drug concentration in rat brain assessed as unbound fraction; assay type: ADME, tissue-based
[6] = Plasma protein binding in rat assessed as unbound fraction; assay type: ADME, cell-free
[7] = filed as negative allosteric modulator

Chain of Metabotropic glutamate receptor 7 (Rattus norvegicus, UniProt P35400) (P35400 whole entry): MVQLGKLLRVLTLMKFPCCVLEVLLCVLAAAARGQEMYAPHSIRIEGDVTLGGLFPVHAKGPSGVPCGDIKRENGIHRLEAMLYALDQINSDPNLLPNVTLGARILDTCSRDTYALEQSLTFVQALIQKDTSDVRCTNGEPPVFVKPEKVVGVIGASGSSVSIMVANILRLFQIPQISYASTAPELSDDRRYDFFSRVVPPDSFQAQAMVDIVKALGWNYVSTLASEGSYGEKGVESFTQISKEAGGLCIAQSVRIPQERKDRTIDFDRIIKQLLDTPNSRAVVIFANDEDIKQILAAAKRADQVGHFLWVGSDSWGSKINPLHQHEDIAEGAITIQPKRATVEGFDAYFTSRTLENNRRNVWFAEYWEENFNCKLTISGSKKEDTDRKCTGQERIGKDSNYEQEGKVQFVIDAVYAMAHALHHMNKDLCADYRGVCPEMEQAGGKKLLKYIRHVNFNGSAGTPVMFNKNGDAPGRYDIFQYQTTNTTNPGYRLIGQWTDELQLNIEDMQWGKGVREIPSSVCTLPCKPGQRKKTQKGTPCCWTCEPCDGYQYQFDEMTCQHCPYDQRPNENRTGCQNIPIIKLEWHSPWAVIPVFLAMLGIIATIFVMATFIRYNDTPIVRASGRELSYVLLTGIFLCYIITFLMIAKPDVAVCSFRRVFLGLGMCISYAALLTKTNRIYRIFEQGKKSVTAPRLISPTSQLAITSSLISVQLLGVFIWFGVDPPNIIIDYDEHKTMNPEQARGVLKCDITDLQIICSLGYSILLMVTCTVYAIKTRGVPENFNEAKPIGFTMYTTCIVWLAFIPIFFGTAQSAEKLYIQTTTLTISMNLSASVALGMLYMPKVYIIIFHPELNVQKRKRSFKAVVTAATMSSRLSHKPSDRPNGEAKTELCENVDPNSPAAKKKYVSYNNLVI
T1 sequence (Q14831 whole entry): as the sequence (P35400 whole entry) above, with G5R, V27A, H454N, T488S, S520A, N578D counted along it

Structure (SMILES)	IC50 [2]	Emin [3, 7]	IC50 [4]	Emin [3]	also measured
COc1cc(C(=O)Nc2cc(OC(F)(F)F)ccc2-n2cncn2)ccc1OCC1CC1					Kp [1]: 2.4
COc1ccc(-c2noc(-c3cc(Cl)c(F)cc3-n3cncn3)n2)cc1OC	> 30 µM	74%			
COc1ccc(-c2nnc(-c3cc(OC(F)(F)F)ccc3-c3cn[nH]c3)o2)cc1OC	2 µM		5.4 µM	26%	
COc1ccc(-c2nnc(-c3cc(Cl)ccc3-c3ccnn3C)o2)cc1OC					fraction unbound [5]: 0.009; Fu [6]: 3.9%
COc1cc(C(=O)Nc2cc(OC(F)(F)F)ccc2-n2cncn2)ccc1OC1CCC1	1 µM		3.1 µM	19%	
COc1ccc(-c2coc(-c3cc(OC(F)(F)F)ccc3-n3cncn3)n2)cc1OC	> 10 µM	45%			
COc1cc(OCC(=O)Nc2cc(OC(F)(F)F)ccc2-n2cncn2)ccc1OC1COC1	0.263 µM		0.819 µM	21.1%	
COc1ccc(-c2nnc(-c3cc(OC(F)(F)F)ccc3-n3ccnc3)o2)cc1OC			3 µM	0%	Kp [1]: 4.9
COc1ccc(-c2noc(-c3cc(Cl)ccc3-n3cncn3)n2)c(F)c1OC	> 30 µM	59%			
COc1ccc(-c2noc(-c3cc(Cl)cc(F)c3-n3cncn3)n2)c(F)c1OC	1 µM	69%			
CCOC(=O)c1cnc2c(OC)cccc2c1-c1ccc(-c2cc(F)cnc2OC)nc1	2.4 µM		4.57 µM	22.4%	
COc1ccc(-c2nnc(-c3cc(OC(F)(F)F)ccc3-n3cncn3)o2)cc1OC	2 µM	60%	1.3 µM		
